Results reported in PubChem BioAssay AID2060626 (Molecular Pharmacology Branch, DTP, NCI, 2025).
“And” between values parts separate entries of the source, which are not always exact repeats. Identical values can stand only once.

System: 168753-222-R-J1-PDC complex spheroid viability
Assay: Anticancer human tumor 168753-222-R-J1-PDC patient-derived bladder carcinoma cell line growth inhibition [CLK]
Details: for viability, T/C: stronger effect = lower value
Excerpt: A high-throughput screen of multi-cell type tumor spheroids was designed to identify active combinations of […] and targeted small molecules. Complex spheroids include a stromal component modeled by human endothelial cells (HUVEC) and fibroblasts modeled by human mesenchymal stem cells (MSCs). The concentration ranges selected for each drug and investigational agent were based upon clinically achievable concentrations if the clinical Cmax of the agent was known.
Compounds. The drugs and investigational agents: cirtuvivint (SM08502; NSC835563), CC-671 (NSC850746), vemurafenib (NSC761431), tapotoclax (NSC804041), sotorasib (NSC818433), adagrasib (NSC831453), MRTX-1133 (NSC836407), BAY2416964 (NSC825713), copanlisib (NSC816437), inavolisib (NSC800729), abemaciclib (NSC768073), osimertinib (NSC779217), entinostat (NSC756642), eltanexor (KPT-8602, NSC794443), venetoclax (NSC766270), ceralasertib (NSC777638), bortezomib (NSC756655), olaparib (NSC753686), talazoparib (NSC767125), alisertib (NSC759677), peposertib (NSC802822), gemcitabine (NSC613327), 5-fluorouracil (NSC19893), SN-38 (NSC673596), oxaliplatin (NSC266046), paclitaxel (NSC125973), and doxorubicin (NSC123127), were obtained from the National Cancer Institute (NCI) Developmental Therapeutics Program Chemical Repository. The FDA-approved anticancer drug set is available from the Developmental Therapeutics Program at https://dtp.cancer.gov/organization/dscb/obtaining/available plates.htm. […] The stock solutions were prepared in dimethyl sulfoxide (DMSO, Sigma-Aldrich, St. Louis, MO, cat. D2650), except for the platinum complexes which were prepared in saline (Quality Biological, Gaithersburg, MD, cat. 114-055-101), at 800-fold the tested concentration and stored at -70 degrees C prior to their use. All drugs and investigational agents were tested over a range starting from a high concentration at or near the clinical Cmax and decreasing in half-log increments. If the clinical Cmax for an agent had not been determined, the highest concentration tested was 10 microM.
Cell Culture. All cells were maintained in an incubator at 37 degrees C and 5% CO2 with 95% humidity. The PDC lines were cultured according to standard operating procedures established by the NCI PDMR. Briefly, all PDCs were thawed and cultured in Matrigel-coated flasks prepared with a working solution of 1X Ham's F-12 nutrient mix, without supplementation (Invitrogen, Waltham, MA, cat. 11765054), 100 U/mL penicillin-streptomycin (Invitrogen, cat. 15140122), and 2.5% Matrigel (Corning Inc., Corning, NY, cat. 354248) for the first three passages. The 947758-054-R-J2-PDC line was cultured in 6B/Colon 1A media, which includes advanced DMEM/F-12 (Thermo Fisher Scientific, cat. 12634028), 10 mM HEPES (Thermo Fisher Scientific, cat. 15630080), 1X GlutaMAX supplement (Thermo Fisher Scientific, cat. 35050061), 0.1 mg/mL primocin (InvivoGen, cat. ant-pm-2), 10% defined fetal bovine serum, heat inactivated (HyClone Laboratories Inc., cat. SH30070.03HI), 1.25 mM N-Acetyl-L-cysteine (Sigma-Aldrich, cat. A9165), 10 mM nicotinamide (Sigma-Aldrich, cat. N0636), 1X B-27 supplement (Thermo Fisher Scientific, cat. 17504044), 1X N-2 supplement (Thermo Fisher Scientific, cat. 17502048), and 10 microM Y-27632 dihydrochloride (Tocris Bioscience, cat. 1254). The 876862-298-R-J1-PDC was cultured in 6E media, which includes all 6B/Colon 1A media components plus 50% L-WRN conditioned media (ATCC, cat. CRL-3276), 50 ng/mL recombinant human EGF recombinant protein (hEGF; Thermo Fisher Scientific, cat. PHG0311), 10 ng/mL recombinant human fibroblast growth factor 10 (hGFG-10; PeproTech, cat. 100-26), 1 ng/mL recombinant human fibroblast growth factor 2 (hFGF-2; PeproTech, cat. 100-18B), and 1 µM prostaglandin E2 (PGE2; Tocris, cat. 2296). The 227483-062-R1-J1-PDC line was cultured in Panc media, containing all 6E components except hFGF-2, with the addition of 500 nM SB-431542 (Selleckchem, cat. S1067) and 10 nM gastrin (Tocris, cat. 3006). […]

[1] = curve of first compound, second compound 0.0316 µM
[2] = curve of first compound, second compound 0.1 µM
[3] = curve of first compound, second compound 0.316 µM
[4] = curve of first compound, second compound 1 µM
[5] = curve of first compound, second compound 3.16 µM
[6] = curve of first compound, second compound 10 µM
[7] = second compound 0.0316 µM, first compound 0.0316 µM
[8] = second compound 0.0316 µM, first compound 0.1 µM
[9] = second compound 0.0316 µM, first compound 0.316 µM
[10] = second compound 0.0316 µM, first compound 1 µM
[11] = second compound 0.1 µM, first compound 0.0316 µM
[12] = second compound 0.1 µM, first compound 0.1 µM
[13] = second compound 0.1 µM, first compound 0.316 µM
[14] = second compound 0.1 µM, first compound 1 µM
[15] = second compound 0.316 µM, first compound 0.0316 µM
[16] = second compound 0.316 µM, first compound 0.1 µM
[17] = second compound 0.316 µM, first compound 0.316 µM
[18] = second compound 0.316 µM, first compound 1 µM
[19] = second compound 1 µM, first compound 0.0316 µM
[20] = second compound 1 µM, first compound 0.1 µM
[21] = second compound 1 µM, first compound 0.316 µM
[22] = second compound 1 µM, first compound 1 µM
[23] = second compound 3.16 µM, first compound 0.0316 µM
[24] = second compound 3.16 µM, first compound 0.1 µM
[25] = second compound 3.16 µM, first compound 0.316 µM
[26] = second compound 3.16 µM, first compound 1 µM
[27] = second compound 10 µM, first compound 0.0316 µM
[28] = second compound 10 µM, first compound 0.1 µM
[29] = second compound 10 µM, first compound 0.316 µM
[30] = second compound 10 µM, first compound 1 µM
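Note: viability measured after seven days of drug exposure.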
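Throughout, for viability, T/C: luminescence signal used as surrogate for viable cell amount; 100% = DMSO vehicle control wells.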

COc1cccc2c1C(=O)c1c(O)c3c(c(O)c1C2=O)CC(O)(C(=O)CO)CC3OC1CC(N)C(O)C(C)O1 (configuration not stated) + CN1CCN(c2cc(C(=O)Nc3cc4cc(-c5cnn(C)c5)ccc4cn3)ccn2)CC1
IC50 [1]: 33.1 nM | IC50 [2]: < 31.6 nM | IC50 [3]: < 31.6 nM | IC50 [4]: < 31.6 nM | IC50 [5]: < 31.6 nM | IC50 [6]: < 31.6 nM | viability, T/C [7]: 51.4% | viability, T/C [8]: 31.8% | viability, T/C [9]: 23.1% | viability, T/C [10]: 6.97% | viability, T/C (second compound 0.0316 µM, first compound 3.16 µM): 7.48% | viability, T/C (second compound 0.0316 µM, first compound 10 µM): 0.18% | viability, T/C [11]: 38.4% | viability, T/C [12]: 15.5% | viability, T/C [13]: 10.5% | viability, T/C [14]: 7.96% | viability, T/C (second compound 0.1 µM, first compound 3.16 µM): 5.89% | viability, T/C (second compound 0.1 µM, first compound 10 µM): 0.16% | viability, T/C [15]: 8.86% | viability, T/C [16]: 8.74% | viability, T/C [17]: 7.81% | viability, T/C [18]: 6.39% | viability, T/C (second compound 0.316 µM, first compound 3.16 µM): 0.05% | viability, T/C (second compound 0.316 µM, first compound 10 µM): 0.05% | viability, T/C [19]: 0.13% | viability, T/C [20]: 0.11% | viability, T/C [21]: 0.17% | viability, T/C [22]: 0.05% | viability, T/C (second compound 1 µM, first compound 3.16 µM): 0.48% | viability, T/C (second compound 1 µM, first compound 10 µM): 1.29% | viability, T/C [23]: 1.25% | viability, T/C [24]: 0.09% | viability, T/C [25]: 0.07% | viability, T/C [26]: 0.05% | viability, T/C (second compound 3.16 µM, first compound 3.16 µM): 0.27% | viability, T/C (second compound 3.16 µM, first compound 10 µM): 0.95% | viability, T/C [27]: 0.04% | viability, T/C [28]: 0.26% | viability, T/C [29]: 0.34% | viability, T/C [30]: 0.08% | viability, T/C (second compound 10 µM, first compound 3.16 µM): 0.95% | viability, T/C (second compound 10 µM, first compound 10 µM): 0.95%

COc1c(OCCCN2CCOCC2)ccc2c3n(c(=NC(=O)c4cnc(N)nc4)nc12)CCN3 + CN1CCN(c2cc(C(=O)Nc3cc4cc(-c5cnn(C)c5)ccc4cn3)ccn2)CC1
IC50 [1]: < 3.16 nM | IC50 [2]: < 3.16 nM | IC50 [3]: < 3.16 nM | IC50 [4]: < 3.16 nM | IC50 [5]: < 3.16 nM | IC50 [6]: < 3.16 nM | viability, T/C (second compound 0.0316 µM, first compound 0.00316 µM): 49% | viability, T/C (second compound 0.0316 µM, first compound 0.01 µM): 28.7% | viability, T/C [7]: 11.2% | viability, T/C [8]: 7.62% | viability, T/C [9]: 4.48% | viability, T/C [10]: 3.95% | viability, T/C (second compound 0.1 µM, first compound 0.00316 µM): 31.4% | viability, T/C (second compound 0.1 µM, first compound 0.01 µM): 21.4% | viability, T/C [11]: 7.93% | viability, T/C [12]: 4.89% | viability, T/C [13]: 1.94% | viability, T/C [14]: 0.48% | viability, T/C (second compound 0.316 µM, first compound 0.00316 µM): 13.2% | viability, T/C (second compound 0.316 µM, first compound 0.01 µM): 10.1% | viability, T/C [15]: 2.34% | viability, T/C [16]: 0.36% | viability, T/C [17]: 0.18% | viability, T/C [18]: 1.84% | viability, T/C (second compound 1 µM, first compound 0.00316 µM): 0.61% | viability, T/C (second compound 1 µM, first compound 0.01 µM): 0.25% | viability, T/C [19]: 0.08% | viability, T/C [20]: 0.05% | viability, T/C [21]: 0.06% | viability, T/C [22]: 0.09% | viability, T/C (second compound 3.16 µM, first compound 0.00316 µM): 1.35% | viability, T/C (second compound 3.16 µM, first compound 0.01 µM): 0.2% | viability, T/C [23]: 0.08% | viability, T/C [24]: 0.05% | viability, T/C [25]: 0.09% | viability, T/C [26]: 0.12% | viability, T/C (second compound 10 µM, first compound 0.00316 µM): 0.06% | viability, T/C (second compound 10 µM, first compound 0.01 µM): 0.11% | viability, T/C [27]: 0.17% | viability, T/C [28]: 0.73% | viability, T/C [29]: 0.21% | viability, T/C [30]: 0.22%

CCc1c2c(nc3ccc(O)cc13)-c1cc3c(c(=O)n1C2)COC(=O)[C@]3(O)CC
viability, T/C (compound 0.00316 µM): 86.5% and 95.1% | viability, T/C (compound 0.01 µM): 49.5% and 86.4% | viability, T/C (compound 0.0316 µM): 31.5% and 79.7% | viability, T/C (compound 0.1 µM): 32.8% and 59.9% | viability, T/C (compound 0.316 µM): 15.3% and 52.8% | viability, T/C (compound 1 µM): 12% and 15.8%

Nc1ccccc1NC(=O)c1ccc(CNC(=O)OCc2cccnc2)cc1
viability, T/C (compound 0.0316 µM): 62.3% and 96.6% | viability, T/C (compound 0.1 µM): 73.6% and 91.6% | viability, T/C (compound 0.316 µM): 60.1% and 85.8% | viability, T/C (compound 1 µM): 37.7% and 86.4% | viability, T/C (compound 3.16 µM): 38.6% and 60.3% | viability, T/C (compound 10 µM): 11.8% and 22.8% | IC50 (curve of compound): 763 nM and 4400 nM
